How the values were obtained:
Assay in all cases: Time to kill comparison
Assay type in all cases: cell-based
Staphylococcus aureus = conditions: 128 ppm; for exposure time to complete kill: S. aureus, challenge 10^4-10^5 CFU/mL; for Number of Microbial Colonies: Staphylococcus aureus, 5 replicates, TNTC = too numerous to count
Description: (§1) Alexidine and Chlorhexidine, both at a concentration of 128 ppm were exposed to a Gram positive bacteria (Staphylococcus aureus), a Gram negative bacteria (Pseudomonas aeruginosa), and a fungus (Candida albicans). The challenge concentration for each organism was 10^4-10^5 CFU/mL, and the exposure time varied from 0.5-60 minutes. […] Complete kill of all three organisms was observed within 0.5-1 minute of Alexidine exposure.

Candida albicans = conditions: 128 ppm; for exposure time to complete kill: C. albicans, challenge 10^4-10^5 CFU/mL; for Number of Microbial Colonies: Candida albicans, 5 replicates, TNTC = too numerous to count
Description: as §1

Pseudomonas aeruginosa = conditions: P. aeruginosa, 128 ppm, challenge 10^4-10^5 CFU/mL
Description: as §1

| Structure (SMILES) | exposure time to complete kill (Staphylococcus aureus) [min] | exposure time to complete kill (Candida albicans) [min] | exposure time to complete kill (Pseudomonas aeruginosa) [min] | Number of Microbial Colonies (Staphylococcus aureus; exposure 0.5 minutes) | Number of Microbial Colonies (Staphylococcus aureus; exposure 1 minute) | Number of Microbial Colonies (Staphylococcus aureus; exposure 5 minutes) | Number of Microbial Colonies (Candida albicans; exposure 0.5 minutes) | Number of Microbial Colonies (Candida albicans; exposure 1 minute) | Number of Microbial Colonies (Candida albicans; exposure 5 minutes) |
| --- | --- | --- | --- | --- | --- | --- | --- | --- | --- |
| CCCCC(CC)CNC(=N)NC(=N)NCCCCCCNC(=N)NC(=N)NCC(CC)CCCC (stereo not drawn) [Alexidine] | 0.5 to 1 | 0.5 to 1 | 0.5 to 1 |  |  |  |  |  |  |
| [H]/N=C(\N/C(=N/[H])NCCCCCCNC(=N)NC(=N)Nc1ccc(Cl)cc1)Nc1ccc(Cl)cc1 [Chlorhexidine] | 60 | 60 | 5 | TNTC | TNTC | TNTC | TNTC | TNTC | TNTC |

— US20210178009A1, “WOUND CARE PRODUCTS COMPRISING ALEXIDINE” (TELEFLEX MEDICAL INCORPORATED, priority 2015, published 2021)
